From ChEMBL document CHEMBL1201862, “PubChem BioAssay data set” (2004)
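In this assay, cells in 96-well plates receive the compound at five concentrations for 48 hours. Endpoints are linearly interpolated between the surrounding concentrations. GI50 marks 50% less growth.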 Calls of active or inactive are those of the source. Rule as the data show it: active = GI50 up to about 1.1 µM and inactive = higher.

Key:
Assay in all cases: NCI tumour cell line growth inhibition, 48 h
EKVX = test system: EKVX
COLO 205 = test system: COLO 205
KM12 = test system: KM12
CAKI-1 = test system: CAKI-1
M14 = test system: M14
NCI-H460 = test system: NCI-H460
LOX IMVI = test system: LOX IMVI
OVCAR-5 = test system: OVCAR-5
UACC-257 = test system: UACC-257
ACHN = test system: ACHN
OVCAR-8 = test system: OVCAR-8
NCI-H226 = test system: NCI-H226
SN12C = test system: SN12C
A498 = test system: A498
SF-295 = test system: SF-295
SK-OV-3 = test system: SK-OV-3

Measured: GI50

COc1cc(OC)c2ssc3c(OC)cc(OC)c4ssc1c2-c43
inactive: EKVX > 100 µM | COLO 205 > 100 µM | KM12 > 100 µM | CAKI-1 > 100 µM | M14 > 100 µM | NCI-H460 > 100 µM | LOX IMVI > 100 µM | OVCAR-5 > 100 µM | UACC-257 > 100 µM | ACHN > 100 µM | OVCAR-8 > 100 µM | NCI-H226 > 100 µM | SN12C > 100 µM | A498 > 100 µM | SF-295 > 100 µM | SK-OV-3 > 100 µM

CCOC(=O)/C=C1\Nc2ccccc2-n2nnnc21
inactive: EKVX > 100 µM | COLO 205 > 100 µM | KM12 > 100 µM | CAKI-1 > 100 µM | M14 > 100 µM | NCI-H460 > 100 µM | LOX IMVI > 100 µM | OVCAR-5 > 100 µM | UACC-257 > 100 µM | ACHN > 100 µM | OVCAR-8 > 100 µM | NCI-H226 > 100 µM | SN12C > 100 µM | A498 > 100 µM | SF-295 > 100 µM | SK-OV-3 > 100 µM

C1=C(c2ccccc2)C(OC2Oc3ccccc3C=C2c2ccccc2)Oc2ccccc21 (stereo unspecified)
inactive: EKVX > 100 µM | COLO 205 > 100 µM | KM12 > 100 µM | CAKI-1 > 100 µM | M14 > 100 µM | NCI-H460 > 100 µM | LOX IMVI > 100 µM | OVCAR-5 > 100 µM | UACC-257 > 100 µM | ACHN 26.1 µM | OVCAR-8 > 100 µM | NCI-H226 > 100 µM | SN12C > 100 µM | A498 > 100 µM | SF-295 > 100 µM | SK-OV-3 > 100 µM

Nc1cn(C2OC(CC(c3ccccc3)(c3ccccc3)c3ccccc3)C(O)C2O)c(=O)[nH]c1=O (stereo unspecified)
inactive: EKVX 33.7 µM | COLO 205 16.6 µM | KM12 31.3 µM | CAKI-1 19.5 µM | M14 22.5 µM | NCI-H460 18.3 µM | LOX IMVI 19.1 µM | OVCAR-5 21.2 µM | UACC-257 22.9 µM | ACHN > 100 µM | OVCAR-8 24.9 µM | NCI-H226 73.8 µM | SN12C 22.1 µM | A498 39.6 µM | SF-295 30.1 µM | SK-OV-3 34.7 µM

Cc1cc(O)c(C=O)c(C)c1CCC1(C)C=Cc2cc(O)ccc2O1 (stereo unspecified)
inactive: EKVX 29.5 µM | COLO 205 15.6 µM | KM12 31.3 µM | CAKI-1 19.2 µM | M14 17.5 µM | NCI-H460 22.6 µM | LOX IMVI 19.6 µM | OVCAR-5 30.5 µM | UACC-257 18.7 µM | ACHN 15.7 µM | OVCAR-8 17.1 µM | NCI-H226 26.5 µM | SN12C 29.3 µM | A498 39.8 µM | SF-295 23.4 µM | SK-OV-3 23.9 µM

N#C/C(=C1\SC(/N=N/c2ccccc2)C(=O)N1c1ccccc1)c1nc2ccccc2[nH]1 (stereo unspecified)
inactive: EKVX > 100 µM | COLO 205 > 100 µM | CAKI-1 > 100 µM | M14 78.2 µM | NCI-H460 36.1 µM | LOX IMVI > 100 µM | OVCAR-5 > 100 µM | UACC-257 78.2 µM | ACHN > 100 µM | OVCAR-8 > 100 µM | NCI-H226 71.1 µM | SN12C > 100 µM | A498 > 100 µM | SF-295 61.2 µM | SK-OV-3 66.5 µM

O=S(=O)(O)c1ccc([Se][Se]c2ccc(S(=O)(=O)O)cc2)cc1
inactive: EKVX > 100 µM | COLO 205 > 100 µM | KM12 > 100 µM | CAKI-1 > 100 µM | M14 > 100 µM | NCI-H460 > 100 µM | LOX IMVI > 100 µM | OVCAR-5 > 100 µM | UACC-257 > 100 µM | ACHN > 100 µM | OVCAR-8 > 100 µM | NCI-H226 > 100 µM | SN12C > 100 µM | A498 > 100 µM | SF-295 > 100 µM | SK-OV-3 > 100 µM
